Values of other authors in PubChem BioAssay AID1259409 (Chemical Carcinogenesis Research Information System (CCRIS), 2018).

Tested on: rodent chemically induced tumor inhibition, incidence and multiplicity
Assay: CCRIS tumor inhibitor studies
Settings: Species: MOUSE

SMILES	tumour outcome (control, treated, inhibition, significance) (Carcinogen: 7,12-DIMETHYLBENZ[A]ANTHRACENE, 57-97-6, Dose [Inhibitor]: 0.04% IN DRINKING WATER DAILY STARTING 4 WK BEFORE CARCINOGEN TREATMENT AND CONTINUING FOR DURATION OF STUDY (STUDY DURA, Route [Inhibitor]: ORAL, Strain/Sex: 101/MALE, FEMALE, Target Tissue: Type of Lesion: SKIN: PAPILLOMA, Dose [Carcinogen]: 225 UG IN 0.15 ML ACETONE ONCE, Promoter: CROTON OIL, 8001-28-3)	tumour outcome (control, treated, inhibition, significance) (Carcinogen: HYDRAZINE SULFATE, 10034-93-2, Dose [Inhibitor]: 1.1 MG/D IN DIET STARTING 1 WK PRIOR TO ADMINISTRATION OF CARCINOGEN UNTIL END OF EXPERIMENT (STUDY DURATION: APPROXIMAT, Route [Inhibitor]: ORAL, Strain/Sex: SWISS/MALE, FEMALE, Target Tissue: Type of Lesion: LUNG: TUMORS, Dose [Carcinogen]: 1.1 MG/D 5 D/WK UNTIL 12 MO OF AGE, Promoter: NONE USED)	tumour outcome (control, treated, inhibition, significance) (Carcinogen: ISONIAZID, 54-85-3, Dose [Inhibitor]: 1.1 MG/MOUSE/D SIMULTANEOUSLY WITH CARCINOGEN 6 D/WK (STUDY DURATION: 24 MO), Route [Inhibitor]: INTRAGASTRIC, Strain/Sex: SWISS/MALE, Target Tissue: Type of Lesion: LUNG: TUMOR, Dose [Carcinogen]: 1.1 MG/MOUSE/D SIMULTANEOUSLY WITH AGENT, Promoter: NONE USED)	tumour outcome (control, treated, inhibition, significance) (Carcinogen: AZOXYMETHANE (25843-45-2), Dose [Inhibitor]: 0, 0.05% ADMINISTERED 1 WK AFTER END OF DEXTRAN SODIUM SULFATE TREATMENT FOR 14 WKS (STUDY DURATION: 17 WKS), Route [Inhibitor]: DIET, Strain/Sex: CD-1/FEMALE (10,10)/(10,10), Target Tissue: Type of Lesion: COLON: ADENOCARCINOMA, Dose [Carcinogen]: 10 MG/KG ONCE, Promoter: DEXTRAN SODIUM SULFATE (9011-18-1))	tumour outcome (control, treated, inhibition, significance) (Carcinogen: AZOXYMETHANE (25843-45-2), Dose [Inhibitor]: 0, 0.05% ADMINISTERED 1 WK AFTER END OF DEXTRAN SODIUM SULFATE TREATMENT FOR 14 WKS (STUDY DURATION: 17 WKS), Route [Inhibitor]: DIET, Strain/Sex: CD-1/FEMALE (10,10)/(10,10), Target Tissue: Type of Lesion: COLON: ADENOMA, Dose [Carcinogen]: 10 MG/KG ONCE, Promoter: DEXTRAN SODIUM SULFATE (9011-18-1))
Cc1ncc(CO)c(CO)c1O	17/19 (89%), 17/18 (94%), -6%, not calculated	22/29 (76%), 26/33 (79%), -4%, not significant	15/29 (52%), 2/12 (17%), 67%, p<0.1		
CC(C)(Oc1ccc(CCNC(=O)c2ccc(Cl)cc2)cc1)C(=O)O				10/10 (100%), 6/10 (60%), 40%, p<0.05	10/10 (100%), 7/10 (70%), 30%, not significant
